{"source": "patent US9439906B2", "about": "“Dosing regimen associated with long acting injectable paliperidone esters” (Janssen Pharmaceutica NV, priority 2007, dated 2016)", "type_in_all_cases": "in vivo, human", "key": {"[1]": {"assay": "Comparison of single-dose PK profile in the deltoid to that in the gluteal (summary of phase 1 studies)", "experimental": "The plasma concentration-time profile of paliperidone after single i.m. injection of the paliperidone palmitate formulation at 25-150 mg-eq. has been documented in several studies (Table 4). Details of how the comparison of injection sites study and the dose proportionality studies were performed are provided in Examples 2 and 3."}, "[2]": {"assay": "Pharmacokinetics in phase 3 study R092670-PSY-3007", "settings": "Day 8, 3 dose groups", "experimental": "Subjects without source documentation of previous exposure to at least 2 doses of oral risperidone or paliperidone extended-release (ER), at least 1 dose of i.m. RISPERDAL® CONSTA® or paliperidone palmitate, or who were not currently receiving an antipsychotic medication were given 4 to 6 days of paliperidone ER 6 mg/day (or the option of oral risperidone 3 mg/day for subjects in Malaysia) for tolerability testing. Subjects who had source documentation of previous exposure to the above medications and were currently taking another antipsychotic regimen continued their current treatment through Day-1. At the beginning of the double-blind treatment period, subjects were randomly assigned in a 1:1:1:1 ratio to 1 of 4 treatment groups: placebo or paliperidone palmitate 25 mg eq., 100 mg eq., or 150 mg eq. Study medication was administered as 4 doses: an initial i.m. injection of 150 mg eq. of paliperidone palmitate or placebo followed by 3 fixed i.m. doses of placebo or paliperidone palmitate [25, 100, or 150 mg eq.] on Days 8, 36, and 64. The initial injection of study medication was given in the deltoid muscle. Subsequent injections were given either in the deltoid or gluteal muscle at the discretion of the investigator. […] Efficacy and safety were evaluated regularly throughout the study. […]"}, "[3]": {"tested_on": "subjects with schizophrenia", "assay": "Efficacy in phase 3 placebo-controlled study R092670-PSY-3007 (PANSS, PSP, CGI-S)", "settings": "for PANSS Total Score End point Mean (SD): LOCF; for PANSS Total Score Change from Baseline Mean (SD): end point LOCF, placebo −2.9; for mean improvement in the PSP score from baseline to end point: placebo 1.7; for subjects who achieved responder status (30% or larger decrease on PANSS total scores): placebo 20.0%", "description": "The study included a screening period of up to 7 days and a 13-week double-blind treatment period. The screening period included a washout of disallowed psychotropic medications. […] Subjects who had source documentation of previous exposure to the above medications and were currently taking another antipsychotic regimen continued their current treatment through Day-1. At the beginning of the double-blind treatment period, subjects were randomly assigned in a 1:1:1:1 ratio to 1 of 4 treatment groups: placebo or paliperidone palmitate 25 mg eq., 100 mg eq., or 150 mg eq. Study medication was administered as 4 doses: an initial i.m. injection of 150 mg eq. of paliperidone palmitate or placebo followed by 3 fixed i.m. doses of placebo or paliperidone palmitate [25, 100, or 150 mg eq.] on Days 8, 36, and 64. The initial injection of study medication was given in the deltoid muscle. Subsequent injections were given either in the deltoid or gluteal muscle at the discretion of the investigator. Randomized subjects were to remain in the study for 28 days after the last injection on Day 64 with the end of study visit scheduled for Day 92 during the double-blind period. The entire study, including the screening period, lasted approximately 14 weeks. Samples for pharmacokinetic (PK) evaluation were collected on Day 1, prior to the first injection and on Days 2, 4, 6, 8, 15, 22, 36, 64 and 92. Efficacy and safety were evaluated regularly throughout the study. A pharmacogenomic blood sample (10 mL) was collected from subjects who gave separate written informed consent for this part of the study. Participation in the pharmacogenomic research was optional. Approximately 105 to 115 mL of whole blood was collected during the study. The primary endpoint was the change in the PANSS total score from baseline (i.e., the start of double-blind treatment, Day 1) to the end of the double-blind treatment period (i.e., Day 92 or the last post baseline assessment). The key secondary efficacy endpoint was the change in the Personal and Social Performance Scale (PSP) from baseline to the end of the double-blind treatment period. The other secondary efficacy endpoint was the change in the Clinical Global Impression-Severity (CGI-S) scores from baseline to the end of the double-blind treatment period. Other endpoints included the change from baseline in subject ratings of sleep quality and daytime drowsiness using a visual analogue scale (VAS), the onset of therapeutic effect, responder rate, and the change from baseline to end point in PANSS subscales and […] factors. All randomized subjects who received at least 1 dose of double-blind study drug and had both baseline and at least one post baseline efficacy measurement (PANSS, PSP, or CGI-S) during the double-blind treatment period were included in the intent-to-treat efficacy analyses. […] This procedure is referred to as the Dunnett-Bonferroni-based parallel gatekeeping procedure. The change from baseline in PANSS total score at each visit and at end point was analyzed using an analysis of covariance (ANCOVA) model. The last observation carried forward (LOCF) method was used. The model included treatment and country as factors and baseline PANSS total score as a covariate. Treatment effect was based on the difference in least-squares mean change. […] Treatment-by-country and treatment-by-baseline PANSS total score interactions were explored using the same ANCOVA model as the one for the analysis of the primary endpoint. If either term was statistically significant at the predefined 2-sided significance level of 0.10, further evaluations of the effect of other covariates were to be performed to assess the nature of the interaction and identify possible causes. […] The analysis of the key secondary endpoint, change in PSP score at end point, was conducted by means of an ANCOVA model with treatment and country as factors and the baseline score as the covariate. […]"}}, "data": [{"compound": "CCCCCCCCCCCCCCCC(=O)OC1CCCn2c1nc(C)c(CCN1CCC(c3noc4cc(F)ccc34)CC1)c2=O", "note": "(racemic) [paliperidone palmitate, (±)-3-[2-[4-(6-fluoro-1,2-benzisoxazol-3-yl)-1-piperidinyl]ethyl]-6,7,8,9-tetrahydro-2-methyl-4-oxo-4H-pyrido[1,2-α]pyrimidin-9-yl hexadecanoate]", "values": [{"measurement": "increase in Cmax versus dose", "setting": "[1]; both injection sites, doses greater than 50 mg eq.", "result": "slightly less than dose proportional"}, {"measurement": "median apparent half-life between injection sites", "setting": "[1]; single dose, deltoid vs gluteal", "result": "comparable"}, {"measurement": "total exposure (AUC∞) of paliperidone versus dose", "setting": "[1]; single-dose 25 to 150 mg eq., deltoid and gluteal", "result": "increased proportionally with dose"}, {"measurement": "median paliperidone plasma concentrations in high BMI compared to low BMI (<25 kg/m^2) subjects", "setting": "[2]", "result": "lower"}, {"measurement": "earliest time point of statistically significant improvement over placebo in change in PANSS total score", "setting": "[3]; 25 mg eq. and 150 mg eq. groups", "result": "Day 8"}, {"measurement": "PANSS Total Score change, Diff of LS Means (SE) versus placebo", "setting": "[3]; 25 mg eq. group", "result": "−5.1 (2.01)"}, {"measurement": "PANSS Total Score End point Mean (SD)", "setting": "[3]; 25 mg eq. group (150 mg eq. Day 1, then 25 mg eq. Days 8, 36, 64)", "result": "78.8 (19.88)"}, {"measurement": "PANSS Total Score Change from Baseline Mean (SD)", "setting": "[3]; 25 mg eq. group", "result": "−8.0 (19.90)"}, {"measurement": "mean improvement in the PSP score from baseline to end point", "setting": "[3]; 25 mg eq. group", "result": 2.9}, {"measurement": "subjects who achieved responder status (30% or larger decrease on PANSS total scores)", "setting": "[3]; 25 mg eq. group", "result": 33.5, "unit": "%"}, {"measurement": "PANSS Total Score change, Diff of LS Means (SE) versus placebo", "setting": "[3]; 100 mg eq. group", "result": "−8.7 (2.00)"}, {"measurement": "PANSS Total Score End point Mean (SD)", "setting": "[3]; 100 mg eq. group (150 mg eq. Day 1, then 100 mg eq. Days 8, 36, 64)", "result": "74.6 (18.06)"}, {"measurement": "PANSS Total Score Change from Baseline Mean (SD)", "setting": "[3]; 100 mg eq. group", "result": "−11.6 (17.63)"}, {"measurement": "mean improvement in the PSP score from baseline to end point", "setting": "[3]; 100 mg eq. group", "result": 6.1}, {"measurement": "subjects who achieved responder status (30% or larger decrease on PANSS total scores)", "setting": "[3]; 100 mg eq. group", "result": 41.0, "unit": "%"}, {"measurement": "PANSS Total Score change, Diff of LS Means (SE) versus placebo", "setting": "[3]; 150 mg eq. group", "result": "−9.8 (2.00)"}, {"measurement": "PANSS Total Score End point Mean (SD)", "setting": "[3]; 150 mg eq. group (150 mg eq. Days 1, 8, 36, 64)", "result": "75.2 (18.59)"}, {"measurement": "PANSS Total Score Change from Baseline Mean (SD)", "setting": "[3]; 150 mg eq. group", "result": "−13.2 (18.48)"}, {"measurement": "mean improvement in the PSP score from baseline to end point", "setting": "[3]; 150 mg eq. group", "result": 8.3}, {"measurement": "subjects who achieved responder status (30% or larger decrease on PANSS total scores)", "setting": "[3]; 150 mg eq. group", "result": 40.0, "unit": "%"}, {"measurement": "time point as of which improvement over placebo in change in PANSS total score was statistically significant", "setting": "[3]; all 3 dose groups", "result": "Day 22"}]}]}
